By IC50 is commonly meant the concentration that gives 50% inhibition. The low end stands for inhibition by little substance, the high end for a need for much substance.

Experiment [1] concerns the target T1, LTB4 receptor (Homo sapiens, UniProt Q15722).
T1 construct: endogenous in cells; host or cells: neutrophils purified from venous blood of normal human donors (purity >95%)
Nature of the experiment: LTB4 Receptor Binding Assay. To be noted: potency relative to compound 1 defined as 1.0; (3H) LTB4 0.6×10^-9 M, human neutrophils. The protocol:
Neutrophils (4-6×10^6) in 1 ml Hanks' balanced salt solution containing 10 mM HEPES buffer (HBSS), pH 7.4 and 30 μM nordihydroguaiaretic acid were incubated with 0.6×10^-9 M (3H) LTB4 in the presence or absence of test compounds. The incubation was carried out at 0° C. for 45 minutes and terminated by adding 5 ml of ice-cold HBSS followed by rapid filtration of incubation mixture under vacuum through GF/C glass fiber filters. The filters were further washed with 10 ml HBSS and radioactivity was determined. Specific binding was defined as the difference between total binding and nonspecific binding which was not displaced by 10^-7 M unlabeled LTB4. All data refer to specific binding.

Experiment [2] relates to Human neutrophils. Nature of the experiment: Modified Boyden Chamber Chemotaxis (LTB4-induced). The following applies: 3×10^-8 M LTB4; for Relative Potency, Chemotaxis: potency relative to compound 1 defined as 1.0. The format is cell-based. The protocol: Human neutrophils were isolated from citrated peripheral blood using standard techniques of dextran sedimentation, followed by centrifugation on Histopaque® sterile solution (Sigma) or Ficoll-paque® (Pharmacia) and hypotonic lysis of erythrocytes. A final cell suspension of 3.4×10^6 neutrophils/ml of HEPES-buffered Hanks balanced salt solution (HBSS, pH 7.3) was added to the upper well (0.8 ml) of a modified Boyden chamber (blind well). […] Percent inhibition was calculated from cell counts corrected for random migration by subtracting the mean of the HBSS control.

The subject of experiment [3] is Human neutrophils. The experiment can be described thus: Human Neutrophil Degranulation Assay (LTB4-induced myeloperoxidase release). To be noted: LTB4 5×10^-8 M; for Relative Potency, Degranulation: potency relative to compound 1 defined as 1.0. The format is cell-based. On the procedure:
Neutrophils were purified from venous blood of normal human donors using standard techniques of dextran sedimentation, centrifugation on Ficoll-paque® (Pharmacia) or Histopaque® sterile solution (Sigma) and hypotonic lysis of erythrocytes (Boyum, A., Isolation of Leukocytes from Human Blood: Further Observations. Stand, J. Lab. Clin. Invest., 21 (Suppl. 97): 31, 1968). The purity of isolated neutrophils was >95%.
Neutrophil degranulation was determined by measuring the release of myeloperoxidase activity into the incubation medium. Neutrophils (3×10^6) in 1 ml HBSS solution were preincubated with cytochalasin B(5 μg) at 37° C. for 5 minutes, followed by preincubation with test compounds for 7 minutes. Neutrophils were then incubated for 2 to 20 minutes with LTB4 (5×10^-8 M) to induce degranulation. Following incubation, samples were centrifuged and myeloperoxidase was extracted from the cell pellets by sonication in phosphate buffer containing 0.4% Triton X-100. Triton X-100 was also added to the supernatants to a concentration of 0.4%. The supernatants and the pellet--extracts were then assayed spectrophotometrically for myeloperoxidase activity by determining the rate of decomposition of H2 O2 with o-dianisidine as hydrogen donor as described by Renlund, et al. (Renlund, D. G., MacFarlane, J. L., Christensen, R. D., Lynch, R. E., and Rothstein, G., A Quantitative and sensitive Method for Measurement of Myeloperoxidase, Clinical Research 28:75A, 1980). Myeloperoxidase activity released into the supernatant was expressed as the percent of the average total activity (pellet plus supernatant).

T1 sequence (Q15722 whole entry): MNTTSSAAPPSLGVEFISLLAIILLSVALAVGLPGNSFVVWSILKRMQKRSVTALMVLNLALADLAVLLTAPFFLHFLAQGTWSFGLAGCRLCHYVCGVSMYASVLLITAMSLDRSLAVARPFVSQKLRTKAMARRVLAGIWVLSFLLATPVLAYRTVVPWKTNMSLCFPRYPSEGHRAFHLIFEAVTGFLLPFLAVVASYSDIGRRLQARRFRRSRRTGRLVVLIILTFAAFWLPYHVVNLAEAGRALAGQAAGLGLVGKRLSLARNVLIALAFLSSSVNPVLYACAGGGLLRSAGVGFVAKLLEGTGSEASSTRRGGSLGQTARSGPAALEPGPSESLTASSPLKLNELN

With `C=CCc1c(OCCCOc2ccc3c(c2CCC)OC(c2nnn[nH]2)CC3)ccc(C(C)=O)c1OC` (centres unmarked), in experiment [1], the “Relative Potency, LTB4 Receptor Binding” value came out at 0.8. In addition, the “Relative Potency, Chemotaxis” value in experiment [2] came out at 9. In addition, in experiment [3], the “Relative Potency, Degranulation” value is on record as 38.

`CCCc1c(OCCCOc2ccc(C(C)=O)c(OC)c2CC2CC2)ccc2c1OC(c1nnn[nH]1)CC2` (centres unmarked): the “Relative Potency, LTB4 Receptor Binding” value in experiment [1] is given as 2. In addition, the “Relative Potency, Chemotaxis” value in experiment [2] was 22.5. Besides, the “Relative Potency, Degranulation” value in experiment [3] was 75.

Regarding `CCCc1c(OCCCOc2ccc(C(C)=O)c(OC)c2CCC)ccc2c1OC(C(=O)O)CC2` (centres unmarked) [Compound 1, 7-[3,(4-acetyl-3-methoxy-2-propylphenoxy)propoxy]-3,4-dihydro-8-propyl-2H-1-benzopyran-2-carboxylic acid, reference compound], the IC50 in experiment [2] (Homo sapiens, Neutrophil) was determined as 1800 nM; in experiment [3] (Homo sapiens, Neutrophil) it was 1500 nM.

For the origin of these results see US5380740A, “Anti-inflammatory compounds, compositions and method of use thereof” (G. D. Searle & Co., priority 1993, dated 1995).
